Legend:
PV-IPSCs in CA1 PCs [1] = assay: shRNA-mediated gene knockdown, dual whole-cell recordings of light-evoked PV-IPSCs; format: in vivo; settings: Dlx5/6Flp; PVCre mice treated with KA for 24 h
From the text: To identify molecular effector(s) of bidirectional perisomatic inhibitory plasticity downstream of Fos activation, short hairpin RNA (shRNA)-mediated gene knockdown was used to determine if any of the six candidate genes mediate the activity-dependent strengthening of PV-mediated inhibition. After verifying the efficiency of knockdown in neurons (see e.g., FIG. 13B) and the absence of adverse effects on overall neuronal viability, individual shRNAs were cloned into a Flp-OFF AAV, allowing payload inactivation by Flp recombinase and the exclusion of shRNA expression in GABAergic INs when using Dlx5/6^Flp mice (see e.g., FIG. 4A, FIG. 4B, FIG. 13C, FIG. 8A).
Following sparse transduction of neurons, PV-IPSCs was simultaneously measured in neighboring pairs of shRNA-positive (mCherry^+) and shRNA-negative (mCherry^−) PCs by photostimulating PV-specific ChR2-expressing boutons in Dlx5/6^Flp; PV^Cre mice that had been treated with KA for 24 h (see e.g., FIG. 4B). […] Similar results were observed following more the physiological condition of NE exposure (see e.g., FIG. 4E, FIG. 13F), indicating a prominent role for CA1 PC-derived Scg2 in the long-term regulation of PV-mediated inhibition.
Viral vectors and titers. All AAVs used were prepared in a Hospital Viral Core and were of serotype AAV2/1. For sparse transductions, viruses were injected at 1×10^8 genome copies per hippocampal hemisphere. For dense transductions, viruses were injected at 2×10^9 genome copies (gc) per hippocampal hemisphere. The viral vectors and original titers were as follows: pAAV-EF1a-DIO-hChR2(H134R)-EYFP (ADDGENE 20298, 1.75×10^13 gc/mL), pAAV-EF1a-fDIO-hChR2(H134R)-EYFP (ADDGENE 55639, 1.39×10^13 gc/mL), pAAV-hSyn-Con/Fon-hChR2-EYFP (ADDGENE 55645, […]), pAAV-pRAM-tTA::TRE-NLS-mKate2-WPREpA (ADDGENE 84474, 2.25×10^13 gc/mL), pAAV-CAG-Cre-GFP (OHIO STATE UNIVERSITY, 1.75×10^13 gc/mL), pAAV-CAG-Cre-mCherry (described herein, 9.10×10^12 gc/mL), pAAV-CAG-Cre-mTagBFP2 (described herein, 2.97×10^12 gc/mL), pAAV-CAG-deltaCre-GFP (described herein, 2.79×10^12 gc/mL), pAAV-FlpOFF-u6-shRNA-CAG-mCherry (described herein): Scrambled control shRNA (SEQ ID NO: 13, ACTTACGCTGAGTACTTCG) (5.08×10^13 gc/mL), Inhba (SEQ ID NO: 14, […]) (4.62×10^13 gc/mL), Bdnf (SEQ ID NO: 15, […]) (6.97×10^13 gc/mL), Pcsk1 (SEQ ID NO: 16, […]) (6.02×10^12 gc/mL), Nptx2 (SEQ ID NO: 17, […]) (1.30×10^12 gc/mL), Scg2#1 (SEQ ID NO: 18, […]) (8.11×10^11 gc/mL), Scg2#2 (SEQ ID NO: 19, […]) (2.75×10^13 gc/mL), Rgs2 (SEQ ID NO: 20, […]) (6.14×10^12 gc/mL), pAAV-CaMKIIa-mCherry (described herein, 3.80×1012 gc/mL), pAAV-CaMKIIa-hM3DGq-T2A-mCherry (described herein, 1.20×10^12 gc/mL), pAAV-hSyn-FlpOFF-Kir2.1-T2A-mCherry (described herein, 2.26×10^12 gc/mL), pAAV-hSyn-FlpOFF-Kir.2.1(Mutant)-T2A-mCherry (described herein, 1.28×10^12 gc/mL; see e.g., Xue et al. (2014), supra), pAAV-u6(Frt)-shRNA#31-CAG-Scg2-rescue (shRNA-resistant)-1×HA-T2A-mCherry-Frt-SV40 (described herein, 1.88×10^12 gc/mL), pAAV-CAG-DIO-Scg2(WT)-3×HA-bGH polyA (described herein, 8.22×10^13 gc/mL), pAAV-CAG-DIO-Scg2(9AA Mutant)-3×HA-bGH polyA (described herein, 6.13×10^13 gc/mL), pAAV-CAG-Frt-Scg2(WT)-1×HA-T2A-mCherry-Frt-bGH polyA (described herein, 1.08×10^13 gc/mL), and pAAV-CAG-Scg2(9AA Mutant)-1×HA-T2A-mCherry-Frt-bGH polyA (described herein, 3.71×10^12 gc/mL).
Ex vivo electrophysiology.

[2] = tested on: IPSCs in CA1 pyramidal neurons; assay: Check that IPSCs in dual whole-cell recordings are monosynaptic (onset latency); format: cell-based, mice; settings: NBQX and (R)-CPP added together in the bath
Protocol: For electrical stimulation experiments, electrical current was delivered via theta glass stimulation electrode placed in the center of stratum pyramidale or stratum radiatum within 150-200 μm of the recorded neuron pair. The stimulus strength was the minimum required to generate small but reliable currents in both neurons. IPSCs were pharmacologically isolated via the addition of 10 μM NBQX (TOCRIS 1044) and 10 μM (R)-CPP (TOCRIS 0247) to the ACSF perfusion.
For the paired interneuron-to-CA1 pyramidal neuron recordings, the monosynaptic nature of the IPSCs was confirmed based on the expected onset latency of 1-3 ms in slice.

PV-IPSCs in CA1 PCs [3] = assay: Scg2 rescue and overexpression, dual whole-cell recordings of PV-IPSCs; format: in vivo, mice
From the text: These findings were further corroborated through a series of rescue and overexpression experiments. […] In addition, amplitudes of light-evoked PV-IPSCs or CCK-IPSC were compared in Scg2-overexpressing (Scg2-OE) and neighboring control (Scg2-WT) neurons; gain-of-function of Scg2 was sufficient to strengthen PV-mediated inhibition and weaken CCK-mediated inhibition, respectively, in the absence of neural activity (see e.g., FIG. 5J, FIG. 15E, FIG. 15F).
Cleavage of the Scg2 precursor gives rise to multiple neuropeptides with distinct functions (see e.g., FIG. 4F). Given that Scg2 cleavage is directed by a series of internal dibasic residues, a cleavage-resistant form of Scg2 was generated in which the nine dibasic sequences were mutated to alanine (9AA-Mut).
Viral vectors and titers. All AAVs used were prepared in a Hospital Viral Core and were of serotype AAV2/1. For sparse transductions, viruses were injected at 1×10^8 genome copies per hippocampal hemisphere. For dense transductions, viruses were injected at 2×10^9 genome copies (gc) per hippocampal hemisphere. […]

CCK-IPSCs in CA1 PCs = assay: Scg2 rescue and overexpression, dual whole-cell recordings of CCK-IPSCs; format: in vivo, mice
[4] = exogenous expression in shRNA-mediated knockdown or Scg2fl/fl knockout conditions
[5] = overexpression in the absence of neural activity

Q: For “shRNA Rgs2: shRNA in pAAV-FlpOFF-u6-shRNA-CAG-mCherry, SEQ ID NO: 20, GCTCCCAAAGAGATAAACAT”, which “amplitudes of PV-IPSC in shRNA-positive versus neighboring shRNA-negative PCs” value (PV-IPSCs in CA1 PCs [1]) is on record?
A: no effects

Q: With `NS(=O)(=O)c1cccc2c1c([N+](=O)[O-])cc1nc(O)c(O)nc12` [NBQX, 2,3-dihydroxy-6-nitro-7-sulphamoyl-benzo(F)quinoxaline] as the molecule, how does the “onset latency of the IPSCs” value [2] read?
A: did not alter

Q: “shRNA Bdnf: shRNA in pAAV-FlpOFF-u6-shRNA-CAG-mCherry, SEQ ID NO: 15, GAATTGGCTGGCGATTCATA” was tested. Which “amplitudes of PV-IPSC in shRNA-positive versus neighboring shRNA-negative PCs” value (PV-IPSCs in CA1 PCs [1]) did it give?
A: slight decrease

Q: How did the “onset latency of the IPSCs” value [2] turn out when `O=C(O)[C@H]1CN(CCCP(=O)(O)O)CCN1` [(R)-CPP, 3-((R)-2-Carboxypiperazin-4-yl)-propyl-1-phosphonic acid] was run?
A: did not alter

Q: “shRNA Inhba: shRNA in pAAV-FlpOFF-u6-shRNA-CAG-mCherry, SEQ ID NO: 14, CCTTCCACTCAACAGTCATT” was tested. Which “amplitudes of PV-IPSC in shRNA-positive versus neighboring shRNA-negative PCs” value (PV-IPSCs in CA1 PCs [1]) did it give?
A: no effects

Q: Which “amplitudes of PV-IPSC in shRNA-positive versus neighboring shRNA-negative PCs” value (PV-IPSCs in CA1 PCs [1]) does the source give for “shRNA Nptx2: shRNA in pAAV-FlpOFF-u6-shRNA-CAG-mCherry, SEQ ID NO: 17, GAAGACATTGCCTGAGCTGT” here?
A: no effects

Q: With “shRNA Pcsk1: shRNA in pAAV-FlpOFF-u6-shRNA-CAG-mCherry, SEQ ID NO: 16, GATAATGATCATGATCCATT” as the molecule, how does the “amplitudes of PV-IPSC in shRNA-positive versus neighboring shRNA-negative PCs” value (PV-IPSCs in CA1 PCs [1]) read?
A: no effects

B1: Scg2: wildtype full-length Scg2 (secretogranin II) precursor protein exogenously expressed from AAV in CA1 pyramidal cells (protein, UniProt Q03517 1-617, looked up)
chain: MAGAKAYRLGAVLLLIHLIFLISGAEAASFQRNQLLQKEPDLRLENVQKFPSPEMIRALEYIEKLRQQAHREESSPDYNPYQGVSVPLQLKENGEESHLAESSRDALSEDEWMRIILEALRQAENEPPSAPKENKPYALNLEKNFPVDTPDDYETQQWPERKLKHMRFPLMYEENSRENPFKRTNEIVEEQYTPQSLATLESVFQELGKLTGPSNQKRERVDEEQKLYTDDEDDVYKTNNIAYEDVVGGEDWSPIEEKIETQTQEEVRDSKENTEKNEQINEEMKRSGQLGLPDEENRRESKDQLSEDASKVITYLRRLVNAVGSGRSQSGPNGDRAARLLQKPLDSQSIYQLIEISRNLQIPPEDLIEMLKAGEKPNGLVEPEQDLELAVDLDDIPEADLDRPDMFQSKMLSKGGYPKAPGRGMVEALPDGLSVEDILNVLGMENVVNQKSPYFPNQYSQDKALMRLPYGPGKSRANQIPKVAWIPDVESRQAPYENLNDQELGEYLARMLVKYPELLNTNQLKRVPSPVSSEDDLQEEEQLEQAIKEHLGPGSSQEMERLAKVSKRIPVGSLKNEDTPNRQYLDEDMLLKVLEYLNQEQAEQGREHLAKRAMENM
modifications: full-length
notes: wildtype full-length Scg2 (secretogranin II) precursor protein exogenously expressed from AAV in CA1 pyramidal cells
Q: What does the source list for B1?
A: PV-mediated inhibition, rescue of loss of Scg2 (PV-IPSCs in CA1 PCs [3]; [4]): restored to control levels; PV-mediated inhibition, overexpressing versus neighboring control neurons (PV-IPSCs in CA1 PCs [3]; [5]): strengthen; CCK-mediated inhibition, rescue of loss of Scg2 (CCK-IPSCs in CA1 PCs; [4]): restored to control levels; CCK-mediated inhibition, overexpressing versus neighboring control neurons (CCK-IPSCs in CA1 PCs; [5]): weaken

From patent publication US20240034765A1, “SCG2 NEUROPEPTIDES AND USES THEREOF” (PRESIDENT AND FELLOWS OF HARVARD COLLEGE, priority 2020, published 2024)
